Data taken from ChEMBL document CHEMBL3751764, “Synthesis and in vitro antiproliferative activity of novel pyrazolo[3,4-d]pyrimidine derivatives” (Medchemcomm, 2015).

Assays:
Format in all cases: functional
[1] = Cytotoxicity against human Caki1 cells assessed as cell growth at 10 uM after 72 hrs by SRB assay relative to control; settings: CAKI-1, 72 h, read-out: Activity
NCI-H460 = experiment: Cytotoxicity against human NCI-H460 cells assessed as cell growth at 10 uM after 72 hrs by SRB assay relative to control; settings: NCI-H460, 72 h, read-out: Activity
ACHN = experiment: Cytotoxicity against human ACHN cells assessed as cell growth at 10 uM after 72 hrs by SRB assay relative to control; settings: read-out: Activity
[2] = Cytotoxicity against human IGROV1 cells assessed as cell growth at 10 uM after 72 hrs by SRB assay relative to control; settings: IGROV-1, 72 h, read-out: Activity
[3] = Cytotoxicity against human SNB75 cells assessed as cell growth at 10 uM after 72 hrs by SRB assay relative to control; settings: SNB-75, 72 h, read-out: Activity
[4] = Cytotoxicity against human HL-60(TB) cells assessed as cell growth at 10 uM after 72 hrs by SRB assay relative to control; settings: HL-60, 72 h, read-out: Activity
[5] = Cytotoxicity against human SF268 cells assessed as cell growth at 10 uM after 72 hrs by SRB assay relative to control; settings: SF-268, 72 h, read-out: Activity
[6] = Cytotoxicity against human SKOV3 cells assessed as cell growth at 10 uM after 72 hrs by SRB assay relative to control; settings: SK-OV-3, 72 h, read-out: Activity
[7] = Cytotoxicity against human OVCAR3 cells assessed as cell growth at 10 uM after 72 hrs by SRB assay relative to control; settings: OVCAR-3, 72 h, read-out: Activity
[8] = Cytotoxicity against human HCT15 cells assessed as cell growth at 10 uM after 72 hrs by SRB assay relative to control; settings: HCT-15, 72 h, read-out: Activity
NCI-H226 = experiment: Cytotoxicity against human NCI-H226 cells assessed as cell growth at 10 uM after 72 hrs by SRB assay relative to control; settings: NCI-H226, 72 h, read-out: Activity
[9] = Cytotoxicity against human Hs 578T cells assessed as cell growth at 10 uM after 72 hrs by SRB assay relative to control; settings: read-out: Activity
[10] = Cytotoxicity against human HOP62 cells assessed as cell growth at 10 uM after 72 hrs by SRB assay relative to control; settings: HOP-62, 72 h, read-out: Activity
T47D = experiment: Cytotoxicity against human T47D cells assessed as cell growth at 10 uM after 72 hrs by SRB assay relative to control; settings: read-out: Activity
SN12C = experiment: Cytotoxicity against human SN12C cells assessed as cell growth at 10 uM after 72 hrs by SRB assay relative to control; settings: read-out: Activity
[11] = Cytotoxicity against human UACC62 cells assessed as cell growth at 10 uM after 72 hrs by SRB assay relative to control; settings: UACC-62, 72 h, read-out: Activity
[12] = Cytotoxicity against human COLO205 cells assessed as cell growth at 10 uM after 72 hrs by SRB assay relative to control; settings: COLO 205, 72 h, read-out: Activity
[13] = Cytotoxicity against human OVCAR5 cells assessed as cell growth at 10 uM after 72 hrs by SRB assay relative to control; settings: OVCAR-5, 72 h, read-out: Activity
HT-29 = experiment: Cytotoxicity against human HT-29 cells assessed as cell growth at 10 uM after 72 hrs by SRB assay relative to control; settings: HT-29, 72 h, read-out: Activity
M14 = experiment: Cytotoxicity against human M14 cells assessed as cell growth at 10 uM after 72 hrs by SRB assay relative to control; settings: M14, 72 h, read-out: Activity
[14] = Cytotoxicity against human SNB19 cells assessed as cell growth at 10 uM after 72 hrs by SRB assay relative to control; settings: SNB-19, 72 h, read-out: Activity
U-251 = experiment: Cytotoxicity against human U251 cells assessed as cell growth at 10 uM after 72 hrs by SRB assay relative to control; settings: U-251, 72 h, read-out: Activity
[15] = Cytotoxicity against human NCI-ADR-RES cells assessed as cell growth at 10 uM after 72 hrs by SRB assay relative to control; settings: read-out: Activity
MDA-MB-231 = experiment: Cytotoxicity against human MDA-MB-231 cells assessed as cell growth at 10 uM after 72 hrs by SRB assay relative to control; settings: MDA-MB-231, 72 h, read-out: Activity
Malme-3M = experiment: Cytotoxicity against human MALME-3M cells assessed as cell growth at 10 uM after 72 hrs by SRB assay relative to control; settings: read-out: Activity
SR = experiment: Cytotoxicity against human SR cells assessed as cell growth at 10 uM after 72 hrs by SRB assay relative to control; settings: read-out: Activity
[16] = Cytotoxicity against human OVCAR4 cells assessed as cell growth at 10 uM after 72 hrs by SRB assay relative to control; settings: OVCAR-4, 72 h, read-out: Activity
[17] = Cytotoxicity against human SF295 cells assessed as cell growth at 10 uM after 72 hrs by SRB assay relative to control; settings: SF-295, 72 h, read-out: Activity
786-0 = experiment: Cytotoxicity against human 786-0 cells assessed as cell growth at 10 uM after 72 hrs by SRB assay relative to control; settings: 786-0, 72 h, read-out: Activity
[18] = Cytotoxicity against human HCC2998 cells assessed as cell growth at 10 uM after 72 hrs by SRB assay relative to control; settings: HCC 2998, 72 h, read-out: Activity
MCF7 = experiment: Cytotoxicity against human MCF7 cells assessed as cell growth at 10 uM after 72 hrs by SRB assay relative to control; settings: MCF7, 72 h, read-out: Activity
MDA-MB-435 = experiment: Cytotoxicity against human MDA-MB-435 cells assessed as cell growth at 10 uM after 72 hrs by SRB assay relative to control; settings: MDA-MB-435, 72 h, read-out: Activity
KM12 = experiment: Cytotoxicity against human KM12 cells assessed as cell growth at 10 uM after 72 hrs by SRB assay relative to control; settings: KM12, 72 h, read-out: Activity
[19] = Cytotoxicity against human HOP92 cells assessed as cell growth at 10 uM after 72 hrs by SRB assay relative to control; settings: HOP-92, 72 h, read-out: Activity
A498 = experiment: Cytotoxicity against human A498 cells assessed as cell growth at 10 uM after 72 hrs by SRB assay relative to control; settings: A498, 72 h, read-out: Activity
SK-MEL-28 = experiment: Cytotoxicity against human SK-MEL-28 cells assessed as cell growth at 10 uM after 72 hrs by SRB assay relative to control; settings: SK-MEL-28, 72 h, read-out: Activity
[20] = Cytotoxicity against human MOLT4 cells assessed as cell growth at 10 uM after 72 hrs by SRB assay relative to control; settings: MOLT-4, 72 h, read-out: Activity

Structure (SMILES)	growth at 10 µM [1]	growth at 10 µM (NCI-H460)	growth at 10 µM (ACHN)	growth at 10 µM [2]	growth at 10 µM [3]	growth at 10 µM [4]	growth at 10 µM [5]	growth at 10 µM [6]	growth at 10 µM [7]	growth at 10 µM [8]	growth at 10 µM (NCI-H226)	growth at 10 µM [9]	growth at 10 µM [10]	growth at 10 µM (T47D)	growth at 10 µM (SN12C)	growth at 10 µM [11]	growth at 10 µM [12]	growth at 10 µM [13]	growth at 10 µM (HT-29)	growth at 10 µM (M14)	also measured
Cc1ccc2nc(Nc3ncnc4c3cnn4-c3ccccc3)sc2c1	103%	98.4%	107%	99.6%	107%	103%	114%	112%	108%	97.8%	101%	120%	110%	108%	97.5%	94.7%	110%	96%	103%	107%	growth at 10 µM [14]: 98.2%; growth at 10 µM (U-251): 103%; growth at 10 µM [15]: 106%; growth at 10 µM (MDA-MB-231): 102%; growth at 10 µM (Malme-3M): 87%; growth at 10 µM (SR): 44.8%; growth at 10 µM [16]: 104%; growth at 10 µM [17]: 99.8%; growth at 10 µM (786-0): 103%; growth at 10 µM [18]: 106%; growth at 10 µM (MCF7): 97.2%; growth at 10 µM (MDA-MB-435): 91.9%; growth at 10 µM (KM12): 98.9%; growth at 10 µM [19]: 97.5%; growth at 10 µM (A498): 66.4%; growth at 10 µM (SK-MEL-28): 95.3%; growth at 10 µM [20]: 102%
c1ccc(COc2ccc(Nc3ncnc4c3cnn4-c3ccccc3)cc2)cc1	99.1%	93.7%	104%	100%	102%	99.8%	108%	108%	113%	72.4%	103%	109%	104%	100%	97.4%	93.3%	107%	98.9%	116%	101%	growth at 10 µM [14]: 96%; growth at 10 µM (U-251): 106%; growth at 10 µM [15]: 107%; growth at 10 µM (MDA-MB-231): 101%; growth at 10 µM (Malme-3M): 92.8%; growth at 10 µM (SR): 92%; growth at 10 µM [16]: 91.3%; growth at 10 µM [17]: 107%; growth at 10 µM (786-0): 100%; growth at 10 µM [18]: 108%; growth at 10 µM (MCF7): 100%; growth at 10 µM (MDA-MB-435): 90.1%; growth at 10 µM (KM12): 98.2%; growth at 10 µM [19]: 98.8%; growth at 10 µM (A498): 77.9%; growth at 10 µM (SK-MEL-28): 96%; growth at 10 µM [20]: 93.1%
